# US20250382588A1, “CHIMERIC AAV AND USES THEREOF” (priority 2023, published 2025)
# Key:
# Assay type in all cases: in vivo, mice
# [1] = system: MSNs in the striatum (STR); experiment: Promoter activity driving EYFP reporter expression after AAV injection into the SNr: striatum; conditions: numbers of YFP-expressing neurons per animal
# Excerpt: (§1) Brain profiles of two epigenetic marks for enhancers and promoters, monomethylation of histone H3 lysine 4 (H3K4me1) and acetylation of histone H3 lysine 27 (H3K27ac) were checked and approximately 2 kilobase-long sequences around the transcriptional start site (TSS) that have high levels of H3K4me1 and/or H3K27ac were identified in mouse brain. Homologous sequences at equivalent positions of the human genome were then cloned onto an AAV backbone, and the activity of the homologous sequences in directing reporter expression was tested in mice after injections of AAVs into the SNr (FIG. 3A-C, TABLE 3).
# G88P2 (2259 bp) was cloned with the following primers: 5′-[…] (SEQ ID NO.: 36) and 3-[…] (SEQ ID NO.: 37). To increase the payload of AAV genome, the G88P2 promoter was shorted using restriction enzymes, and two derivatives, G88P3 and G88P7, were made which were 1395-bp and 896-bp long, respectively (FIG. 3A-3C). Comparative efficiency in labeling MSNs for the two shortened promoters was observed. For mice that received viral injections into the SNr, viruses expressing EYFP driven by G88P3 and G88P7 promoters labeled 3.7±0.66×104 and 3.95±0.73×104 MSNs per mouse, respectively, compared to 1.61±0.16×104 labeled MSNs by hSyn promoter (FIG. 4B).
# (§2) Region-selective promoter identification was based on the Allen Brain Atlas in situ hybridization (ISH) data (mouse.brain-map.org/). Genes highly expressed in the striatum but not in other parts of the basal ganglia were first selected as candidates. H3K4me1 and H3K27ac are known epigenetic marks for active promoters and enhancers. Thus, we identified regions with high levels of these two chromatin modification marks in mouse brain as candidate regions based on the ENCODE annotation data on the UCSC Genome Browser (genome.ucsc.edu/). To further extend the promoters' potential application in primates, the sequences of interest were PCR-amplified from human genomic DNA. Based on the above strategies, GPR88 was selected as a candidate gene. The nucleotide sequence upstream of the start codon with high H3K4me1 and H3K27ac levels was selected as the candidate promoter sequence. G88P2 (2259 bp) was cloned with the following primers: 5′-[…]-3′ (SEQ ID NO: 36), 5′-[…]-3′ (SEQ ID NO: 58). G88P3 (1395 bp) and G88P7 (896 bp) were further shortened by subcloning.
# Promoters were subcloned into a pAAV-hSyn-EYFP vector derived from pAAV-hSyn-EGFP (Addgene, 50465) to replace the hSyn promoter by using appropriate restriction enzyme combinations. To generate pAAV-G88P7-DIO-tdTomato, a DIO-tdTomato cassette was subcloned into pAAV-G88P7-EYFP to replace EYFP by restriction enzyme digestion. To generate pAAV-G88P3-HA-hM3Dq, promoter G88P3 was subcloned into pAAV-hSyn-HA-hM3Dq-IRES-mCitrine (Addgene, 50463) via the EcoRI/BamHI restriction sites to replace the hSyn promoter and IRES-mCitrine was removed afterwards by restriction enzyme digestion. To generate pAAV-G88P3-HA-hM3Dq-2A-EYFP, a 2A-EYFP fragment was subcloned into pAAV-G88P3-HA-hM3Dq after hM3Dq. […]
# Images were acquired using a confocal microscope (Carl Zeiss, LSM880) and an Axiolmager.Z1 microscope with apotome (Carl Zeiss). […] Every sixth section was analyzed, and numbers of EYFP+ cells were multiplied by six to acquire the approximate total number and mean number of cells per animal. […]
# [2] = system: substantia nigra (SN); experiment: Promoter activity driving EYFP reporter expression after AAV injection into the SNr: substantia nigra; conditions: numbers of YFP-expressing neurons per animal
# Excerpt: as §1
# as §2, with “subcloning. […]” for “subcloning.”
# Images were acquired using a confocal microscope (Carl Zeiss, LSM880) and an Axiolmager.Z1 microscope with apotome (Carl Zeiss). […] Every sixth section was analyzed, and numbers of EYFP+ cells were multiplied by six to acquire the approximate total number and mean number of cells per animal. Images were processed using ImageJ (NIH, USA), and final quantifications were independently performed manually by two blinded experimenters.
# [3] = system: striatal D1 MSNs (striatonigral projection neurons); experiment: Retrograde labeling of striatonigral projection neurons after AAV injection into the SNr; conditions: AAV8R capsid mutants; numbers of labeled neurons per animal
# Description: To improve efficiency, multiple rounds of mutations of AAV capsids were performed on a series of different serotypes. Mutations were introduced at three sites in the AAV8 capsid protein to make AAV8R, including N385D, insertion of […] (SEQ ID NO: 31) at position 588, and TS711-712IN. Two additional mutations of V183E and N411S were incorporated into the AAV8R12 capsid protein (FIG. 1A). The labeling pattern of the AAV8R12 capsid and G88 promoter combination was determined.
# First, the polypeptide fragment RGNLADODYTKTARQAATAD (SEQ ID NO.: 31) was inserted at the N587-R588 position; two other point mutations of the AAV2 Cap protein were made to develop rAAV2-retro. Similar mutations were then placed at equivalent positions for four other AAV serotypes (FIGS. 1A-IC and 25, TABLE 1), AAV1/5/6/8 (FIG. 1A). […] When administered into the SNr, 4.86±0.22 times EYFP positive MSNs in mice infected by AAV8R-hSyn-EYFP were observed as compared to those infected by rAAV2-retro-hSyn-EYFP (FIG. 2A-2C).
# Baseline infectivity of rAAV2-retro was approximately 0.2±0.03×10^4 cells per striatal hemisphere (using a hSyn promoter) (TABLE 2). […] Compared to the current standard retrograde AAV, rAAV2-retro, AAV8R12 labeled 7.72±0.78-times more MSNs after nigral delivery (FIG. 2B-2C, TABLE 1). […] The AAV8R12 was generated using the AAV8R plasmid as a template.
# Mice were anesthetized with sodium pentobarbital (Nembutal; 80 mg/kg, i.p.), and then placed into a stereotaxic device (KOPF). Eye cream was applied on both corneas to avoid dehydration. The skull above the targeted areas was thinned with a dental drill and carefully removed. Injections were conducted with a 10 μL syringe connected to a 33-Gauge needle (Neuros; Hamilton), using a microsyringe pump (Legato 130, KD Scientific). A total volume of 200 nL virus was injected into the SNr at a speed of 20 nL/min. The coordinates for the SNr were 3.4 mm posterior, 1.3 mm lateral, 4.8 mm ventral to the bregma.
# HEK293T cells (ATCC) were co-transfected by calcium phosphate with an AAV vector plasmid, an AAV Rep-Cap plasmid (rAAV2-retro, AAV1R, AAV5R, AAV6R, AAV8R, and AAV8R1-14), and the pAdDeltaF6 helper plasmid (Addgene, 112867) harboring the adenoviral genes required for the AAV life cycle. HEK293T cells grown in 15 cm cell culture dishes were co-transfected with the mixture of three plasmids (1:1:1) at 80% confluency. 48-72 hours post-transfection, cells were collected and resuspended in a buffer containing 150 mM NaCl and 100 mM Tris-HCl (pH 8.0). Cells were lysed by repeated freeze-thaw cycles in liquid nitrogen and a 37° C. water bath. AAV particles were purified and concentrated using Millipore Amicon 100K columns (Merck Millipore, UFC910008). Encapsidated viral DNA was quantitated by qPCR (Thermo Fisher) with primers recognizing the viral WPRE and/or ITR sequences following denaturation of the AAV particles using Proteinase K. Titers were calculated as genome copies per milliliter.
# Images were acquired using a confocal microscope (Carl Zeiss, LSM880) and an Axiolmager.Z1 microscope with apotome (Carl Zeiss). Brain structures were identified microscopically and in digital photos using a mouse brain atlas. To analyze the number of EYFP+ cells in the striatum, slices from rostral to caudal striatum were used. Every sixth section was analyzed, and numbers of EYFP+ cells were multiplied by six to acquire the approximate total number and mean number of cells per animal. Images were processed using ImageJ (NIH, USA), and final quantifications were independently performed manually by two blinded experimenters.
Molecule,Activity Level STR [1],Activity Level SN [2],Labeling Efficiency in Striatonigral Pathway [3]
"G88P2: 2259-bp promoter from the gene GPR88, SEQ ID NO: 59",++++ (>25 k),+ (<5 k),–
"AAV8R2: AAV8R capsid mutant N411S, SEQ ID NO: 3 (protein) MAADGYLPDWLEDNLSEGIREWWALKPGAPKPKANQQKQDDGRGLVLPGYKYLGPFNGLDKGEPVNAADAAALEHDKAYDQQLQAGDNPYLRYNHADAEFQERLQEDTSFGGNLGRAVFQAKKRVLEPLGLVEEGAKTAPGKKRPVEPSPQRSPDSSTGIGKKGQQPARKRLNFGQTGDSESVPDPQPLGEPPAAPSGVGPNTMAAGGGAPMADNNEGADGVGSSSGNWHCDSTWLGDRVITTSTRTWALPTYNNHLYKQISNGTSGGATNDNTYFGYSTPWGYFDFNRFHCHFSPRDWQRLINNNWGFRPKRLSFKLFNIQVKEVTQNEGTKTIANNLTSTIQVFTDSEYQLPYVLGSAHQGCLPPFPADVFMIPQYGYLTLNDGSQAVGRSSFYCLEYFPSQMLRTGNSFQFTYTFEDVPFHSSYAHSQSLDRLMNPLIDQYLYYLSRTQTTGGTANTQTLGFSQGGPNTMANQAKNWLPGPCYRQQRVSTTTGQNNNSNFAWTAGTKYHLNGRNSLANPGIAMATHKDDEERFFPSNGILIFGKQNAARDNADYSDVMLTSEEEIKTTNPVATEEYGIVADNLQRGNLADQDYTKTARQAATADVNSQGALPGMVWQNRDVYLQGPIWAKIPHTDGNFHPSPLMGGFGLKHPPPQILIKNTPVPADPPTTFNQSKLNSFITQYSTGQVSVEIEWELQKENSKRWNPEIQYTSNYYKSINVDFAVNTEGVYSEPRPIGTRYLTRNL",–,–,+ (<5 k)
"AAV8R3: AAV8R capsid mutant Y447F, SEQ ID NO: 4 (protein) MAADGYLPDWLEDNLSEGIREWWALKPGAPKPKANQQKQDDGRGLVLPGYKYLGPFNGLDKGEPVNAADAAALEHDKAYDQQLQAGDNPYLRYNHADAEFQERLQEDTSFGGNLGRAVFQAKKRVLEPLGLVEEGAKTAPGKKRPVEPSPQRSPDSSTGIGKKGQQPARKRLNFGQTGDSESVPDPQPLGEPPAAPSGVGPNTMAAGGGAPMADNNEGADGVGSSSGNWHCDSTWLGDRVITTSTRTWALPTYNNHLYKQISNGTSGGATNDNTYFGYSTPWGYFDFNRFHCHFSPRDWQRLINNNWGFRPKRLSFKLFNIQVKEVTQNEGTKTIANNLTSTIQVFTDSEYQLPYVLGSAHQGCLPPFPADVFMIPQYGYLTLNDGSQAVGRSSFYCLEYFPSQMLRTGNNFQFTYTFEDVPFHSSYAHSQSLDRLMNPLIDQYLYFLSRTQTTGGTANTQTLGFSQGGPNTMANQAKNWLPGPCYRQQRVSTTTGQNNNSNFAWTAGTKYHLNGRNSLANPGIAMATHKDDEERFFPSNGILIFGKQNAARDNADYSDVMLTSEEEIKTTNPVATEEYGIVADNLQRGNLADQDYTKTARQAATADVNSQGALPGMVWQNRDVYLQGPIWAKIPHTDGNFHPSPLMGGFGLKHPPPQILIKNTPVPADPPTTFNQSKLNSFITQYSTGQVSVEIEWELQKENSKRWNPEIQYTSNYYKSINVDFAVNTEGVYSEPRPIGTRYLTRNL",–,–,+ (<5 k)
